The IC50 is the point on the concentration scale where inhibition reaches its midpoint. Higher therefore signals weaker potency in that assay.

Here are results for eight molecules from patent US20120035155A1, “INDOLE-2-CARBOXAMIDE DEIVATIVE” (MSD K.K., priority 2009, published 2012).

This assay concerns the target T1, human QRFP receptor (GPR103) (Homo sapiens, UniProt Q96P65).
T1 construct: expressed in transfected cells; host or cells: CHO-K1 NFAT β-Lactamase (Aurora); membrane sample
T1 sequence (Q96P65 1-431): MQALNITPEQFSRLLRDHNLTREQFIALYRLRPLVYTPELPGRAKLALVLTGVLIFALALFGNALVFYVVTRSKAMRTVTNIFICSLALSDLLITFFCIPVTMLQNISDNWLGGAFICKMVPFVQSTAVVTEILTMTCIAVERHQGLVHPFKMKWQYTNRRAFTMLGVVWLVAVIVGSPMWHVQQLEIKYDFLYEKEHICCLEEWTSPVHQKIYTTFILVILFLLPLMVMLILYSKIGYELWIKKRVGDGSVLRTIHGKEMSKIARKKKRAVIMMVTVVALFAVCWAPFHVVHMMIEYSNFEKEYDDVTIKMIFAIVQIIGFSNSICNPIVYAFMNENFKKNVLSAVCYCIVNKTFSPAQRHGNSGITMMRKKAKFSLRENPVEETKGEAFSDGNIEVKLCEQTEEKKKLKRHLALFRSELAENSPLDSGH
In words: QRFP43-Binding Inhibitory Test. To be noted: inhibition of specific [125I] QRFP43 binding; membrane sample of CHO-K1 NFAT β-Lactamase cells expressing GPR103; 25° C., 1 hour. The source says:
A cDNA sequence [Accession No. NM_198179] coding for a human QRFP receptor (GPR103) was cloned in an expression vector pEF1V5-H isB (by Invitrogen). The resulting expression vector was transfected in a host cell CHO-K1 NFAT β-Lactamase (by Aurora), according to a cationic lipid process [see Proceedings of the National Academy of Sciences of the United States of America, Vol. 84, p. 7413, 1987], thereby producing a QRFP receptor (GPR103).
A membrane sample prepared from the cells having expressed a QRFP receptor (GPR103) was incubated in an assay buffer (50 mM Tris-HCl, 1 mM EDTA and 0.1% BSA, pH 7.4) along with a test compound and 20,000 cpm [^125I] QRFP43 (by Perkin Elmer) therein, at 25° C. for 1 hour, and then filtered through a glass filter GF/C. After washed with 50 mM Tris-HCl (containing 2 mM EDTA, 10 mM MgCl2 and 0.04% Tween-20) buffer (pH 7.4), the radioactivity on the glass filter was determined. The non-specific binding was determined in the presence of 1 μM peptide QRFP43, and the 50% inhibitory concentration (IC50) of the test compound to the specific [^125I] QRFP43 binding was computed [see Endocrinology, Vol. 131, p. 2090, 1992].
Regarding `Cn1c(C(=O)NCc2ccc3c(c2)CCNC3)cc2ccccc21` [Example 1, 1-Methyl-N-(1,2,3,4-tetrahydroisoquinolin-6-ylmethyl)-1H-indole-2-carboxamide], the IC50 is 61 nM.

The molecule `CCN1CCc2cc(CNC(=O)c3cc4ccccc4n3C)ccc2C1` [Example 2, N-(2-ethyl-1,2,3,4-tetrahydroisoquinolin-6-ylmethyl)-1-methyl-1H-indole-2-carboxamide] showed an IC50 of 49 nM. With `Cn1c(C(=O)NCc2ccc3c(c2)CCN(C2CCCC2)C3)cc2ccccc21` [Example 3, N-(2-cyclopentyl-1,2,3,4-tetrahydroisoquinolin-6-ylmethyl)-1-methyl-1H-indole-2-carboxamide], the IC50 came out at 45 nM. `CN(C)Cc1ccc2c(c1)CCN(C(=O)c1cc3ccccc3n1C)C2` [Example 4, [6-Dimethylaminomethyl-3,4-dihydro-2(1H)isoquinolin-2-yl](1-methyl-1H-indol-2-yl)methanone] displayed an IC50 of 5.8 nM. `CNCc1ccc2c(c1)CCN(C(=O)c1cc3ccccc3n1C)C2` [Example 5, [6-Methylaminomethyl-3,4-dihydro-2(1H)isoquinolin-2-yl](1-methyl-1H-indol-2-yl)methanone] returned an IC50 of 19 nM. For the molecule `Cn1c(C(=O)N2CCc3cc(CN4CCC4)ccc3C2)cc2ccccc21` [Example 6, [6-(Azetidin-1-ylmethyl)-3,4-dihydro-2(1H)isoquinolin-2-yl](1-methyl-1H-indol-2-yl)methanone], the IC50 is 43 nM. The same measure for `CN(C)Cc1ccc2c(c1)CCN(C(=O)c1cc3cc(Cl)ccc3n1C)C2` [Example 7, [6-Dimethylaminomethyl-3,4-dihydro-2(1H)isoquinolin-2-yl](5-chloro-1-methyl-1H-indol-2-yl)methanone]: 6.1 nM; for `CNCc1ccc2c(c1)CCN(C(=O)c1cc3cc(Cl)ccc3n1C)C2` [Example 8, [6-methylaminomethyl-3,4-dihydro-2(1H)isoquinolin-2-yl](5-chloro-1-methyl-1H-indol-2-yl)methanone]: 25 nM.
